Source: US20240116985A1, “STAPLED PEPTIDES AND METHODS THEREOF” (priority 2020, published 2024)
In brackets after ≈: the same amount, converted by molar mass. Where two headings read alike, the source gives them in different places.

How the values were obtained:
[1] = biological target: T1, full-length beta-Catenin (Uniprot ID P35222) (Homo sapiens, UniProt P35222); assay: Fluorescence polarization IC50 (beta-catenin / 5FAM-TCF4 10-53 competition); format: binding
T1 construct: 10 nM full-length beta-Catenin (Uniprot ID P35222)
T1 sequence (P35222 1-781): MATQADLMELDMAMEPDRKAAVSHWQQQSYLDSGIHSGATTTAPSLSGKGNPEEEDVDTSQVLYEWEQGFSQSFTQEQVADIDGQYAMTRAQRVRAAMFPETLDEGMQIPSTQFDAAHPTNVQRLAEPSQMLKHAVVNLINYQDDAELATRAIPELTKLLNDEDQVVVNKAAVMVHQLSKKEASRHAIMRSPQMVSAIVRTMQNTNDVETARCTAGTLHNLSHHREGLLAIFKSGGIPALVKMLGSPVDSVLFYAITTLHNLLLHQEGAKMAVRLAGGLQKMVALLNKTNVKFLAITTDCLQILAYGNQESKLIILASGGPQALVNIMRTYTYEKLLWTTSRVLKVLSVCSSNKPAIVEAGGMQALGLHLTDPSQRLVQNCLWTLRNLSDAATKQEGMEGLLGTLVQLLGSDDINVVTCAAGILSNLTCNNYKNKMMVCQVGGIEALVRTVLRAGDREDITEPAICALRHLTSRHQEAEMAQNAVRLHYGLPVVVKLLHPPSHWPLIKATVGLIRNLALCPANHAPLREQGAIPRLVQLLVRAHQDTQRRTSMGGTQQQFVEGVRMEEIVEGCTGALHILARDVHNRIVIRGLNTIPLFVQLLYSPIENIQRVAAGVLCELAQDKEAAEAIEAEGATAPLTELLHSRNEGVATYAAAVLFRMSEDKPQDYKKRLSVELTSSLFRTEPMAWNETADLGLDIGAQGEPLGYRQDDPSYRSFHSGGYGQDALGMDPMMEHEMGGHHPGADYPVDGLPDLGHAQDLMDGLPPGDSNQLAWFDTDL

CHI Log D procedure = format: physicochemical; settings: pH 7.4
Solubility in PBS = format: physicochemical
How it was run: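 PBS sample ultracentrifuged; supernatant run on HPLC vs. 50 μM peptide in DMSO standard. Solubility = (PBS peak area / DMSO peak area) × 50 uM.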

[2] = fluorescence polarization, beta-catenin, read-out: FP EC50

IC50 [1, 2] [nM]	IC50 ([1]; read-out: beta-Catenin FP IC50) [nM]	CHI Log D (CHI Log D procedure)	Solubility (Solubility in PBS) [µM]	SMILES
798	798	2.209	47 (≈ 94.7 µg/mL)	CC(=O)N1CCC[C@]12CC=CCCCC1(CCCC=CCCCOC(=O)N3CC[C@@](C(=O)N[C@@H](Cc4ccsc4)C(=O)N[C@@H](Cc4csc5ccccc45)C(=O)N[C@@H](CC(C)C)C(N)=O)(C3)NC(=O)[C@H](CC(N)=O)NC(=O)[C@H](Cc3ccccc3)NC(=O)[C@H](C)NC(=O)[C@H](C)NC(=O)[C@H](CN(CC(=O)O)CC(F)(F)F)NC(=O)[C@H](CC(=O)O)NC1=O)NC(=O)[C@H](CC(C)(C)C)NC(=O)[C@H](CC(=O)O)NC2=O (stereo partly drawn) [I-946, Ac-PL3-Asp-Npg-B5-Asp-TfeGA-Ala-Ala-Phe-Asn-PyrS2-3Thi-BztA-Leu-NH2]
1050	1050	2.271	47 (≈ 94.7 µg/mL)	CC(=O)N1CCC[C@]12CC=CCCCC1(CCCC=CCCCOC(=O)N3CC[C@@](C(=O)N[C@@H](Cc4ccsc4)C(=O)N[C@@H](Cc4csc5ccccc45)C(=O)N[C@@H](CC(C)C)C(N)=O)(C3)NC(=O)[C@H](CC(N)=O)NC(=O)[C@H](Cc3ccccc3)NC(=O)[C@H](C)NC(=O)[C@H](C)NC(=O)[C@H](CN(CC(=O)O)CC(F)(F)F)NC(=O)[C@H](CC(=O)O)NC1=O)NC(=O)[C@H](CC(C)(C)C)NC(=O)[C@H](CC(=O)O)NC2=O (stereo partly drawn) [I-947, Ac-PL3-Asp-Npg-B5-Asp-TfeGA-Ala-Ala-Phe-Asn-PyrS2-3Thi-BztA-Leu-NH2]
2430	2430	2.013	47 (≈ 94.1 µg/mL)	CC(=O)N1CCC[C@]12CC=CCCCC1(CCCC=CCCCOC(=O)N3CC[C@@](C(=O)N[C@@H](Cc4ccsc4)C(=O)N[C@@H](Cc4csc5ccccc45)C(=O)N[C@@H](C(N)=O)[C@H](C)O)(C3)NC(=O)[C@H](CC(N)=O)NC(=O)[C@H](Cc3ccccc3)NC(=O)[C@H](C)NC(=O)[C@H](C)NC(=O)[C@H](CN(CC(=O)O)CC(F)(F)F)NC(=O)[C@H](CC(=O)O)NC1=O)NC(=O)[C@H](CC(C)(C)C)NC(=O)[C@H](CC(=O)O)NC2=O (stereo partly drawn) [I-948, Ac-PL3-Asp-Npg-B5-Asp-TfeGA-Ala-Ala-Phe-Asn-PyrS2-3Thi-BztA-dThr-NH2]
2260	2260	2.086	49 (≈ 98.1 µg/mL)	CC(=O)N1CCC[C@]12CC=CCCCC1(CCCC=CCCCOC(=O)N3CC[C@@](C(=O)N[C@@H](Cc4ccsc4)C(=O)N[C@@H](Cc4csc5ccccc45)C(=O)N[C@@H](C(N)=O)[C@H](C)O)(C3)NC(=O)[C@H](CC(N)=O)NC(=O)[C@H](Cc3ccccc3)NC(=O)[C@H](C)NC(=O)[C@H](C)NC(=O)[C@H](CN(CC(=O)O)CC(F)(F)F)NC(=O)[C@H](CC(=O)O)NC1=O)NC(=O)[C@H](CC(C)(C)C)NC(=O)[C@H](CC(=O)O)NC2=O (stereo partly drawn) [I-949, Ac-PL3-Asp-Npg-B5-Asp-TfeGA-Ala-Ala-Phe-Asn-PyrS2-3Thi-BztA-dThr-NH2]
1630	1630	1.9	46 (≈ 92.1 µg/mL)	CC(=O)N1CCC[C@]12CC=CCCCC1(CCCC=CCCCOC(=O)N3CC[C@@](C(=O)N[C@@H](Cc4ccsc4)C(=O)N[C@@H](Cc4csc5ccccc45)C(=O)N[C@@H](CCO)C(N)=O)(C3)NC(=O)[C@H](CC(N)=O)NC(=O)[C@H](Cc3ccccc3)NC(=O)[C@H](C)NC(=O)[C@H](C)NC(=O)[C@H](CN(CC(=O)O)CC(F)(F)F)NC(=O)[C@H](CC(=O)O)NC1=O)NC(=O)[C@H](CC(C)(C)C)NC(=O)[C@H](CC(=O)O)NC2=O (stereo partly drawn) [I-950, Ac-PL3-Asp-Npg-B5-Asp-TfeGA-Ala-Ala-Phe-Asn-PyrS2-3Thi-BztA-Hse-NH2]
1470	1470	1.971	47 (≈ 94.1 µg/mL)	CC(=O)N1CCC[C@]12CC=CCCCC1(CCCC=CCCCOC(=O)N3CC[C@@](C(=O)N[C@@H](Cc4ccsc4)C(=O)N[C@@H](Cc4csc5ccccc45)C(=O)N[C@@H](CCO)C(N)=O)(C3)NC(=O)[C@H](CC(N)=O)NC(=O)[C@H](Cc3ccccc3)NC(=O)[C@H](C)NC(=O)[C@H](C)NC(=O)[C@H](CN(CC(=O)O)CC(F)(F)F)NC(=O)[C@H](CC(=O)O)NC1=O)NC(=O)[C@H](CC(C)(C)C)NC(=O)[C@H](CC(=O)O)NC2=O (stereo partly drawn) [I-951, Ac-PL3-Asp-Npg-B5-Asp-TfeGA-Ala-Ala-Phe-Asn-PyrS2-3Thi-BztA-Hse-NH2]
1460	1460	2.04	47 (≈ 97 µg/mL)	CC(=O)N1CCC[C@]12CC=CCCCC1(CCCC=CCCCOC(=O)N3CC[C@@](C(=O)N[C@@H](Cc4ccsc4)C(=O)N[C@@H](Cc4csc5ccccc45)C(=O)N[C@@H](Cc4ccc(O)cc4)C(N)=O)(C3)NC(=O)[C@H](CC(N)=O)NC(=O)[C@H](Cc3ccccc3)NC(=O)[C@H](C)NC(=O)[C@H](C)NC(=O)[C@H](CN(CC(=O)O)CC(F)(F)F)NC(=O)[C@H](CC(=O)O)NC1=O)NC(=O)[C@H](CC(C)(C)C)NC(=O)[C@H](CC(=O)O)NC2=O (stereo partly drawn) [I-953, Ac-PL3-Asp-Npg-B5-Asp-TfeGA-Ala-Ala-Phe-Asn-PyrS2-3Thi-BztA-Tyr-NH2]
900	900	1.918	46 (≈ 90.2 µg/mL)	CC(=O)N1CCC[C@]12CC=CCCCC1(CCCC=CCCCOC(=O)N3CC[C@@](C(=O)N[C@@H](Cc4ccsc4)C(=O)N[C@@H](Cc4csc5ccccc45)C(=O)N[C@@H](CO)C(N)=O)(C3)NC(=O)[C@H](CO)NC(=O)[C@H](Cc3ccccc3)NC(=O)[C@H](C)NC(=O)[C@H](C)NC(=O)[C@H](CN(CC(=O)O)CC(F)(F)F)NC(=O)[C@H](CC(=O)O)NC1=O)NC(=O)[C@H](CC(C)(C)C)NC(=O)[C@H](CC(=O)O)NC2=O (stereo partly drawn) [I-954, Ac-PL3-Asp-Npg-B5-Asp-TfeGA-Ala-Ala-Phe-Ser-PyrS2-3Thi-BztA-Ser-NH2]
1200	1200	1.998	45 (≈ 88.3 µg/mL)	CC(=O)N1CCC[C@]12CC=CCCCC1(CCCC=CCCCOC(=O)N3CC[C@@](C(=O)N[C@@H](Cc4ccsc4)C(=O)N[C@@H](Cc4csc5ccccc45)C(=O)N[C@@H](CO)C(N)=O)(C3)NC(=O)[C@H](CO)NC(=O)[C@H](Cc3ccccc3)NC(=O)[C@H](C)NC(=O)[C@H](C)NC(=O)[C@H](CN(CC(=O)O)CC(F)(F)F)NC(=O)[C@H](CC(=O)O)NC1=O)NC(=O)[C@H](CC(C)(C)C)NC(=O)[C@H](CC(=O)O)NC2=O (stereo partly drawn) [I-955, Ac-PL3-Asp-Npg-B5-Asp-TfeGA-Ala-Ala-Phe-Ser-PyrS2-3Thi-BztA-Ser-NH2]
1090	1090	1.875	46 (≈ 90.9 µg/mL)	CC(=O)N1CCC[C@]12CC=CCCCC1(CCCC=CCCCOC(=O)N3CC[C@@](C(=O)N[C@@H](Cc4ccsc4)C(=O)N[C@@H](Cc4csc5ccccc45)C(=O)N[C@@H](CO)C(N)=O)(C3)NC(=O)[C@H]([C@@H](C)O)NC(=O)[C@H](Cc3ccccc3)NC(=O)[C@H](C)NC(=O)[C@H](C)NC(=O)[C@H](CN(CC(=O)O)CC(F)(F)F)NC(=O)[C@H](CC(=O)O)NC1=O)NC(=O)[C@H](CC(C)(C)C)NC(=O)[C@H](CC(=O)O)NC2=O (stereo partly drawn) [I-956, Ac-PL3-Asp-Npg-B5-Asp-TfeGA-Ala-Ala-Phe-Thr-PyrS2-3Thi-BztA-Ser-NH2]
1430	1430	−0.043	46 (≈ 90.9 µg/mL)	CC(=O)N1CCC[C@]12CC=CCCCC1(CCCC=CCCCOC(=O)N3CC[C@@](C(=O)N[C@@H](Cc4ccsc4)C(=O)N[C@@H](Cc4csc5ccccc45)C(=O)N[C@@H](CO)C(N)=O)(C3)NC(=O)[C@H]([C@@H](C)O)NC(=O)[C@H](Cc3ccccc3)NC(=O)[C@H](C)NC(=O)[C@H](C)NC(=O)[C@H](CN(CC(=O)O)CC(F)(F)F)NC(=O)[C@H](CC(=O)O)NC1=O)NC(=O)[C@H](CC(C)(C)C)NC(=O)[C@H](CC(=O)O)NC2=O (stereo partly drawn) [I-957, Ac-PL3-Asp-Npg-B5-Asp-TfeGA-Ala-Ala-Phe-Thr-PyrS2-3Thi-BztA-Ser-NH2]
606	606	1.417	47 (≈ 92.8 µg/mL)	CC(=O)N1CCC[C@]12CC=CCCCC1(CCCC=CCCCOC(=O)N3CC[C@@](C(=O)N[C@@H](Cc4ccsc4)C(=O)N[C@@H](Cc4csc5ccccc45)C(=O)N[C@@H](CO)C(N)=O)(C3)NC(=O)[C@H](CCO)NC(=O)[C@H](Cc3ccccc3)NC(=O)[C@H](C)NC(=O)[C@H](C)NC(=O)[C@H](CN(CC(=O)O)CC(F)(F)F)NC(=O)[C@H](CC(=O)O)NC1=O)NC(=O)[C@H](CC(C)(C)C)NC(=O)[C@H](CC(=O)O)NC2=O (stereo partly drawn) [I-958, Ac-PL3-Asp-Npg-B5-Asp-TfeGA-Ala-Ala-Phe-Hse-PyrS2-3Thi-BztA-Ser-NH2]
